Consider one compound from US5585364A, “Antiviral compounds” (British Technology Group Limited, priority 1989, dated 1996).

Read-outs that look alike come from different tables or passages of the source.

Data set [1] relates to HIV 3B. Nature of the data set: Anti-HIV testing: protection of MT4 cells from virus induced cytopathic effect (MTT uptake). Format: cell-based, HIV-1. The note with it: for Antiviral Activity: % Protection: MT4 cells, HIV 3B, 5 days, 37° C. On the procedure:
(§1) The sample, considered of adequate quality for antiviral testing is assayed as follows:
(§2) The assays are carried out in 96 well (microtitre) panels using the MT4 cell line, infe3cted with IOTCID50 of HIV 3B. The antiviral activity and cytotoxicity of each compound is assayed simultaneously. Three compounds are screened on each panel. Each compound is tested at 100.0, 10.0, 1.0 and 0.1 μM, unless otherwise stated. AZT is included in each assay as a positive control at 10.0, 1.0, 0.1 and 0.01 μM.
(§3) The antiviral activity (in infected cells) and cytotoxicity (to uninfected cells) of each compound is determined by measuring the number of viable cells remaining after 5 days incubation of 37° C. and comparing them with infected or uninfected controls. The number of viable cells is determined by the addition of the tetrazolium dye MTT. […] Following MTT addition, the cells are solubilised with acidified isopropanol and the extent of MTT conversion is measured spectrophotometrically.
Antiviral activity is apparent through the ability of compounds to protect the cells from virus induced cytopathic effect. The result is reported as the percentage of cells protected at a given drug concentration.

Data set [2] in a line: Cytotoxicity to uninfected MT4 cells (MTT uptake). In kind it is cell-based. The note with it: human. As for the experimental part: as §1, §2, §3

For the compound `Cc1cn([C@H]2C[C@H](N=[N+]=[N-])[C@@H](COP(=O)(OC[C@H]3O[C@@H](n4cc(C)c(=O)[nH]c4=O)C[C@@H]3N=[N+]=[N-])Oc3ccc(S(C)(=O)=O)cc3)O2)c(=O)[nH]c1=O` [BTG 1704, 4-(methylsulphonyl)phenyl bis (3'-azido thymidin-5'-yl) phosphate], the “Antiviral Activity: % Protection” value in data set [1] (0.001 μM) was determined as 9%; in data set [1] (0.01 μM), 21%; in data set [1] (0.1 μM) it was 91%; in data set [1] (1.0 μM), 91%; in data set [1] (10 μM), 79%; in data set [1] (100 μM) it was 13%. Besides, in data set [1] (concentrations between 0.1 and 10 μM), the “protection of MT4 cells from HIV-1 cytopathic effect” value is recorded as “significant protection”. The MCC at 120 h in data set [2] (estimated, not a quantitative test for cytotoxicity, read-out: toxic concentration of the drug) is about 100 µM; in data set [2] (uninfected MT4 cells, 5 days, 37° C., read-out: MTC), 100 µM.
